Assay: xn = mol fraction of the nth substance listed, in the solute-free solvent

CN1CCC(N(Cc2cccs2)c2ccccc2)CC1 + CCCO + O
solubility (g/100 g solution)
Details | 278.15 K | 283.15 K | 288.15 K | 293.15 K | 298.15 K | 303.15 K | 308.15 K | 313.15 K | 318.15 K | 323.15 K
x2 = 0.03225 | 0.166 | 0.176 | 0.187 | 0.203 | 0.221 | 0.243 | 0.267 | 0.289 | 0.318 | 0.348
x2 = 0.06974 | 0.411 | 0.434 | 0.458 | 0.492 | 0.533 | 0.581 | 0.632 | 0.682 | 0.743 | 0.808
x2 = 0.1139 | 0.734 | 0.774 | 0.815 | 0.873 | 0.943 | 1.02 | 1.11 | 1.2 | 1.3 | 1.41
x2 = 0.1666 | 1.05 | 1.11 | 1.18 | 1.26 | 1.36 | 1.48 | 1.61 | 1.73 | 1.88 | 2.04
x2 = 0.2307 | 1.32 | 1.4 | 1.49 | 1.6 | 1.73 | 1.89 | 2.06 | 2.22 | 2.41 | 2.62
x2 = 0.3103 | 1.55 | 1.66 | 1.77 | 1.91 | 2.08 | 2.26 | 2.48 | 2.69 | 2.93 | 3.18
x2 = 0.4117 | 1.77 | 1.9 | 2.04 | 2.21 | 2.4 | 2.63 | 2.87 | 3.13 | 3.45 | 3.75
x2 = 0.5454 | 1.97 | 2.13 | 2.3 | 2.5 | 2.74 | 3 | 3.31 | 3.62 | 3.96 | 4.32
x2 = 0.7297 | 2.09 | 2.27 | 2.47 | 2.7 | 2.97 | 3.26 | 3.62 | 3.98 | 4.36 | 4.77

CN1CCC(N(Cc2cccs2)c2ccccc2)CC1 + CCO + O
solubility (g/100 g solution)
Details | 278.15 K | 283.15 K | 288.15 K | 293.15 K | 298.15 K | 303.15 K | 308.15 K | 313.15 K | 318.15 K | 323.15 K
x2 = 0.04165 | 0.102 | 0.109 | 0.117 | 0.128 | 0.141 | 0.156 | 0.171 | 0.187 | 0.206 | 0.228
x2 = 0.08908 | 0.202 | 0.215 | 0.23 | 0.25 | 0.274 | 0.301 | 0.33 | 0.358 | 0.393 | 0.431
x2 = 0.1436 | 0.339 | 0.36 | 0.385 | 0.418 | 0.457 | 0.501 | 0.546 | 0.592 | 0.646 | 0.707
x2 = 0.2068 | 0.502 | 0.533 | 0.571 | 0.62 | 0.679 | 0.743 | 0.807 | 0.874 | 0.953 | 1.04
x2 = 0.2812 | 0.667 | 0.713 | 0.764 | 0.826 | 0.904 | 0.984 | 1.07 | 1.16 | 1.26 | 1.39
x2 = 0.3698 | 0.851 | 0.906 | 0.981 | 1.07 | 1.18 | 1.29 | 1.4 | 1.51 | 1.65 | 1.8
x2 = 0.4772 | 1.02 | 1.08 | 1.18 | 1.29 | 1.42 | 1.56 | 1.69 | 1.84 | 2.01 | 2.19
x2 = 0.6101 | 1.16 | 1.24 | 1.36 | 1.5 | 1.65 | 1.81 | 1.97 | 2.15 | 2.35 | 2.56
x2 = 0.7788 | 1.22 | 1.32 | 1.47 | 1.64 | 1.81 | 2 | 2.19 | 2.4 | 2.63 | 2.87

Cc1ccc2cc(Br)ccc2n1 + CCO + O
solubility (g/100 g solution)
Details | 278.15 K | 283.15 K | 288.15 K | 293.15 K | 298.15 K | 303.15 K | 308.15 K | 313.15 K | 318.15 K | 323.15 K
x2 = 0.04165 | 0.0289 | 0.0336 | 0.0393 | 0.0455 | 0.0528 | 0.0607 | 0.0707 | 0.0816 | 0.0939 | 0.108
x2 = 0.08908 | 0.0673 | 0.0777 | 0.0902 | 0.103 | 0.119 | 0.137 | 0.158 | 0.181 | 0.207 | 0.237
x2 = 0.1436 | 0.119 | 0.137 | 0.159 | 0.181 | 0.209 | 0.239 | 0.276 | 0.315 | 0.359 | 0.411
x2 = 0.2068 | 0.176 | 0.203 | 0.234 | 0.267 | 0.308 | 0.354 | 0.408 | 0.466 | 0.53 | 0.607
x2 = 0.2812 | 0.218 | 0.26 | 0.304 | 0.347 | 0.4 | 0.46 | 0.535 | 0.61 | 0.695 | 0.798
x2 = 0.3698 | 0.266 | 0.313 | 0.373 | 0.43 | 0.501 | 0.579 | 0.667 | 0.762 | 0.873 | 1.01
x2 = 0.4772 | 0.308 | 0.37 | 0.442 | 0.521 | 0.603 | 0.705 | 0.819 | 0.935 | 1.07 | 1.24
x2 = 0.6101 | 0.356 | 0.425 | 0.505 | 0.593 | 0.693 | 0.812 | 0.948 | 1.09 | 1.27 | 1.47
x2 = 0.7788 | 0.399 | 0.477 | 0.569 | 0.67 | 0.785 | 0.925 | 1.08 | 1.25 | 1.44 | 1.66

Nc1cccc2ccncc12 + CCO + O
solubility (g/100 g solution)
Details | 278.15 K | 283.15 K | 288.15 K | 293.15 K | 298.15 K | 303.15 K | 308.15 K | 313.15 K | 318.15 K | 323.15 K
x2 = 0.04165 | 0.0455 | 0.0527 | 0.0604 | 0.0712 | 0.0812 | 0.0941 | 0.11 | 0.128 | 0.147 | 0.171
x2 = 0.08908 | 0.0727 | 0.084 | 0.0965 | 0.113 | 0.129 | 0.149 | 0.174 | 0.202 | 0.233 | 0.271
x2 = 0.1436 | 0.111 | 0.129 | 0.148 | 0.172 | 0.197 | 0.228 | 0.266 | 0.308 | 0.355 | 0.413
x2 = 0.2068 | 0.162 | 0.187 | 0.215 | 0.25 | 0.287 | 0.332 | 0.387 | 0.448 | 0.517 | 0.602
x2 = 0.2812 | 0.211 | 0.244 | 0.286 | 0.338 | 0.39 | 0.45 | 0.52 | 0.604 | 0.697 | 0.809
x2 = 0.3698 | 0.271 | 0.315 | 0.371 | 0.441 | 0.51 | 0.589 | 0.685 | 0.794 | 0.922 | 1.08
x2 = 0.4772 | 0.308 | 0.371 | 0.437 | 0.522 | 0.618 | 0.722 | 0.846 | 0.987 | 1.14 | 1.33
x2 = 0.6101 | 0.364 | 0.432 | 0.522 | 0.614 | 0.718 | 0.835 | 0.975 | 1.13 | 1.33 | 1.56
x2 = 0.7788 | 0.383 | 0.459 | 0.559 | 0.658 | 0.77 | 0.902 | 1.06 | 1.25 | 1.47 | 1.73

CC(=O)Oc1cccc2c1C(=O)c1c(OC(C)=O)cc(C(=O)O)cc1C2=O + CCOC(C)=O + CC(C)O
solubility (g/100 g solution)
Details | 273.15 K | 278.15 K | 283.15 K | 288.15 K | 293.15 K | 298.15 K | 303.15 K | 308.15 K | 313.15 K
x2 = 0.07045 | 0.0064 | 0.00841 | 0.0107 | 0.014 | 0.0178 | 0.0215 | 0.0261 | 0.0309 | 0.0362
x2 = 0.1457 | 0.00881 | 0.0112 | 0.0142 | 0.0177 | 0.0216 | 0.0261 | 0.031 | 0.0367 | 0.0431
x2 = 0.2262 | 0.0102 | 0.0132 | 0.0164 | 0.0199 | 0.0246 | 0.0305 | 0.0368 | 0.0448 | 0.0539
x2 = 0.3126 | 0.0121 | 0.0158 | 0.0197 | 0.0245 | 0.0299 | 0.0359 | 0.0439 | 0.0522 | 0.062
x2 = 0.4055 | 0.0132 | 0.0175 | 0.0224 | 0.0279 | 0.0338 | 0.0406 | 0.0489 | 0.0583 | 0.069
x2 = 0.5057 | 0.0164 | 0.0205 | 0.0253 | 0.0305 | 0.0368 | 0.0435 | 0.0512 | 0.0598 | 0.0693
x2 = 0.6141 | 0.0209 | 0.026 | 0.0317 | 0.0375 | 0.0445 | 0.0521 | 0.0612 | 0.0702 | 0.0806
x2 = 0.7318 | 0.0254 | 0.0303 | 0.0368 | 0.0441 | 0.0516 | 0.06 | 0.0692 | 0.0796 | 0.0906
x2 = 0.8599 | 0.0219 | 0.0263 | 0.0318 | 0.0379 | 0.0443 | 0.0515 | 0.0599 | 0.0686 | 0.0779

CC(=O)Oc1cccc2c1C(=O)c1c(OC(C)=O)cc(C(=O)O)cc1C2=O + CCOC(C)=O + CCO
solubility (g/100 g solution)
Details | 273.15 K | 278.15 K | 283.15 K | 288.15 K | 293.15 K | 298.15 K | 303.15 K | 308.15 K | 313.15 K
x2 = 0.05491 | 0.00668 | 0.0091 | 0.0121 | 0.016 | 0.0207 | 0.0262 | 0.0328 | 0.04 | 0.0477
x2 = 0.1156 | 0.00776 | 0.0107 | 0.0144 | 0.0188 | 0.0241 | 0.0303 | 0.0382 | 0.0464 | 0.0564
x2 = 0.1831 | 0.015 | 0.0183 | 0.022 | 0.0265 | 0.0324 | 0.0391 | 0.0465 | 0.0555 | 0.0662
x2 = 0.2585 | 0.0202 | 0.0259 | 0.0317 | 0.0381 | 0.045 | 0.0534 | 0.0632 | 0.0734 | 0.0846
x2 = 0.3434 | 0.0268 | 0.0331 | 0.0402 | 0.0487 | 0.0574 | 0.067 | 0.078 | 0.0898 | 0.103
x2 = 0.4396 | 0.033 | 0.0398 | 0.0471 | 0.0563 | 0.0659 | 0.0773 | 0.0893 | 0.103 | 0.118
x2 = 0.5496 | 0.0337 | 0.0411 | 0.0496 | 0.0593 | 0.0698 | 0.0813 | 0.0934 | 0.109 | 0.125
x2 = 0.6765 | 0.0349 | 0.0419 | 0.0506 | 0.0609 | 0.0723 | 0.0849 | 0.0975 | 0.112 | 0.127
x2 = 0.8247 | 0.0222 | 0.0276 | 0.0334 | 0.0401 | 0.048 | 0.0562 | 0.0655 | 0.0763 | 0.087

— the CheMixHub drug solubility set
